Experimental data: patent publication US20230407304A1, “USE OF MICRORNA INHIBITION TO PREVENT AND TREAT OSTEOARTHRITIS AND OTHER INFLAMMATORY DISEASES” (VIRGINIA COMMONWEALTH UNIVERSITY, priority 2020, published 2023)
Entries after “also recorded” stand apart in the source; their conditions may differ.

Experiments:
[1] = system: WNT/β-catenin; conditions: literature; cited from earlier work
[2] = system: articular chondrocytes; experiment: miR-122 / miR-451 transfection of articular chondrocytes in presence and absence of IL-1β; format: cell-based, rat
Description: The following Examples with these microRNAs established their functions in articular chondrocytes in the presence and absence of the inflammatory cytokine IL-1β. Since IL-1β signaling is a major contributor of OA, a well-established model of creating an osteoarthritic phenotype in vitro is to stimulate cell cultures with this cytokine. This study first established that both these microRNAs were elevated in OA in the bilateral ACLT model.
The miR-451 miR (SEQ ID NO:10) was originally chosen as a control miR but it had surprising and very specific functions. […] A series of transfections and inhibition experiments with these microRNAs confirmed that these changes were due to the microRNAs themselves.

[3] = system: rat articular chondrocytes (rArCs); experiment: miR mimic or inhibitor transfection of rArCs with or without TNF-α stimulation; format: cell-based
Procedure: FIGS. 7A-7F show assessment of miR-122 and miR-451 transfection or inhibition on TNF-α stimulated rat articular chondrocytes. rArCs were transfected at 60% confluence with miR-122, miR-451, miR-122-inhibitor (122-Inh), miR-451 inhibitor (451-Inh), or an empty vehicle (Lipo) for 24 hours followed by 24 hours with or without 10 ng/mL TNF-α stimulation. (FIG. 7A, 7D) Total DNA was measured from the cell monolayer and (FIG. 7B, 7E) MMP-13 and (FIG. 7C, 7F) PGE2 proteins were measured from the conditioned media. Groups not sharing a letter (A, B or C over bar) are statistically significant using an alpha=0.05.
Rat articular chondrocytes (rArCs) were isolated using a previously established protocol (see Scott, supra). Briefly, rArCs were isolated from femoral condyles and tibial plateaus from 100-125 g male Sprague Dawley rats. Cartilage was sterilely sliced from the articular surfaces using a surgical blade and placed in Dulbecco's modification of Eagle's medium with 1 g/L glucose, 50 U/mL penicillin and streptomycin (pen-strep) (DMEM). After removing DMEM, cartilage was incubated with 0.05% trypsin (20 mins, 37° C.), rinsed with DMEM (50 U/mL pen-strep, 20 mins, 37° C.), and then digested with sterile-filtered 0.03% collagenase type II solution (Worthington Biochemical, Lakewood, NJ) in Hank's balanced salt solution (16 hrs, 37° C.). Digestion was quenched with an equal volume of DMEM containing 10% fetal bovine serum (FBS) and 50 U/mL pen-strep, strained through a 40 μm strainer (Greiner Bio-one, North Carolina), spun down at 500×g for 10 mins and plated at a seeding density of 15,000 cells/cm^2. These cells are at passage 0. All experiments used cells at passage 1.
rArCs were plated at a seeding density of 15,000 cells/cm^2 and fed with DMEM supplemented with 10% FBS and 50 U/mL pen-strep. Media were changed 24 hours after plating and then every 48 hours. After treatments described below, conditioned media were collected, centrifuged at 1,000×g for 10 mins to remove cellular debris, aliquoted, and stored at −80° C. until assayed. Cell monolayers were rinsed twice with 1 mL of 1×PBS, lysed in 500 μL of 0.05% Triton X-100, and frozen for later DNA analysis. MMP-13 (ANASpec, Fremont, CA) and PGE2 (R&D Systems) were measured in the conditioned media by a microplate reader at ex/em 490 nm/520 nm, and 450 nm absorbance, respectively, in accordance with the manufacturer's directions. Data were normalized to the DNA content of the cell monolayer. Cell layers were thawed, and mechanically lysed by ultrasonication (40V, 10s/well) (VCX-120; Vibra-cell, Newtown, CT) and DNA was measured using QuantiFluor dsDNE system kit (Promega, Madson, WI) and quantified on a fluorescence plate reader at ex/em 504 nm/531 nm. […]

[4] = system: rat articular chondrocytes (rArCs); experiment: Stimulation of rArCs with IL-1β or TNF-α (total DNA, MMP-13, PGE2); format: cell-based; conditions: 10 ng/mL IL-1β or 5 and 10 ng/mL TNF-α, 24 hours, vs control
Procedure: FIGS. […] (FIG. 6A) Total DNA was measured from the cell monolayer and (FIG. 6B) MMP-13, and (FIG. 6C) PGE2 proteins were measured from the conditioned media. Groups not sharing a letter (D, C, B or A over bar) are statistically significant using an alpha=0.05.
Rat articular chondrocytes (rArCs) were isolated using a previously established protocol (see Scott, supra). Briefly, rArCs were isolated from femoral condyles and tibial plateaus from 100-125 g male Sprague Dawley rats. Cartilage was sterilely sliced from the articular surfaces using a surgical blade and placed in Dulbecco's modification of Eagle's medium with 1 g/L glucose, 50 U/mL penicillin and streptomycin (pen-strep) (DMEM). […]
rArCs were plated at a seeding density of 15,000 cells/cm^2 and fed with DMEM supplemented with 10% FBS and 50 U/mL pen-strep. […] MMP-13 (ANASpec, Fremont, CA) and PGE2 (R&D Systems) were measured in the conditioned media by a microplate reader at ex/em 490 nm/520 nm, and 450 nm absorbance, respectively, in accordance with the manufacturer's directions. […] Cell layers were thawed, and mechanically lysed by ultrasonication (40V, 10s/well) (VCX-120; Vibra-cell, Newtown, CT) and DNA was measured using QuantiFluor dsDNE system kit (Promega, Madson, WI) and quantified on a fluorescence plate reader at ex/em 504 nm/531 nm. […]

[5] = system: rat articular chondrocytes (rArCs); experiment: WNT/β-catenin agonist or antagonist treatment of rArCs with or without IL-1β; format: cell-based
[6] = system: rat articular chondrocytes (rArCs); experiment: WNT/β-catenin agonist or antagonist treatment of rArCs with or without TNF-α; format: cell-based
[7] = miR transfection of articular chondrocytes
[8] = miR transfection plus IL-1β stimulation

PKF115-584
IL-1β and TNF-α induced cartilage degradation [1]: block IL-1β and TNF-α induced cartilage degradation

miR-122: mirVana miRNA mimic rno-miR-122-5p; UGGAGUGUGACAAUGGUGUUUG (UGGAGUGUGACAAUGGUGUUUG; listed as RNA, chemistry not given here)
proliferation [2, 7]: stimulated proliferation | total DNA [2, 7]: increased total DNA | IL-1β-stimulated MMP-13 [2, 8]: able to prevent the IL-1β-stimulated increase | IL-1β-stimulated PGE2 [2, 8]: able to prevent the IL-1β-stimulated increase | growth factor VEGF [2, 8]: prevented IL-1β-stimulated increase | inflammatory mediators, cytokines, chemokines (IL-1α, IL-2, IL-4, IL-6, GM-CSF, MIP-1A; RANTES for miR-122) [2, 8]: prevented IL-1β-stimulated increase | change of total DNA on TNF-α treatment in transfected cells ([3]; 14.5 nM mimic 24 hours, then 10 ng/mL TNF-α 24 hours): modestly decreased total DNA | total DNA after mimic transfection ([3]; 14.5 nM mimic, 24 hours, vs Lipo control): increased total DNA

TNF-α
total DNA of cell monolayer [4]: no differences in DNA

IL-1β: inflammatory cytokine (Peprotech) used to stimulate chondrocyte cultures
total DNA of cell monolayer [4]: no differences in DNA

Cn1ncnc2c(=O)n(C)c(=O)nc1-2 [PKF, PKF-118-310]
total DNA [5]: drastically decreased total DNA | IL-1β and TNF-α induced cartilage degradation [1]: block IL-1β and TNF-α induced cartilage degradation

[Cl-].[Li+] [LiCl, lithium chloride]
total DNA [5]: decreased total DNA | total DNA [6]: decreased total DNA to similar levels; also recorded: marginally decreased this
